2 compounds from EP0054578A1, “N-(substituted chromone-3-carbonyl)-phenylglycine derivatives” (Eisai Co., Ltd., priority 1980, dated 1982) can be followed below.

In general, MIC refers to the lowest concentration found to suppress growth. High values mean a less susceptible organism, low ones a more susceptible organism.

SMILES strings stand for the structures. In brackets after ≈: the same amount, converted by molar mass.

What all share (experiment): Antibacterial activity (MIC)
Common to all, as to type: cell-based

In assay [1] the test system is Pseudomonas aeruginosa EP-172. Particulars: EP172.
The test system of assay [2] is Serratia marcescens ES-75. Particulars: ES75.
Assay [3] has as its system Klebsiella pneumoniae EK-6. Particulars: EK6.
In assay [4] the test system is Staphylococcus aureus 209-P.
The subject of assay [5] is Proteus morganii EP-14. To be noted: Morganella morganii, EP14.
For assay [6], the system named is Escherichia coli NIHJ.

Consider `CCOC(=O)Oc1cc2occ(C(=O)N[C@@H](C(=O)N[C@@H]3C(=O)N4C(C(=O)O)=C(CSc5nnnn5CC(=O)O)CS[C@H]34)c3ccc(O)cc3)c(=O)c2cc1OC(=O)OCC` [Preparatory Example 2 A, 7β-[D-2-{6,7-bis(ethoxycarbonyloxy)chromone-3-carboxamido}-2-(4-hydroxyphenyl)acetamido]-3-[(1-carboxymethyl-5-tetrazolyl)thiomethyl]-3-cephem-4-carboxylic acid], for which the MIC was 0.8 µg/mL (≈ 0.92 µM) in assay [1]; not above 0.05 µg/mL in assay [2]; not above 0.05 µg/mL in assay [3]; 6.25 µg/mL (≈ 7.19 µM) in assay [4]; 1.56 µg/mL (≈ 1.79 µM) in assay [5]; 0.4 µg/mL (≈ 0.46 µM) in assay [6].
Consider `O=C(O)Cn1nnnc1SCC1=C(C(=O)O)N2C(=O)[C@@H](NC(=O)[C@H](NC(=O)c3coc4cc(O)c(O)cc4c3=O)c3ccc(O)cc3)[C@H]2SC1` [Preparatory Example 2 B, 7β-[D-2-(6,7-Dihydroxychromone-3-carboxyamido)-2-(4-hydroxyphenyl)acetamido]-3-[(1-carboxymethyl-5-tetrazolyl)thiomethyl]-cephem-4-carboxylic acid], for which the MIC in assay [1] is 0.8 µg/mL (≈ 1.1 µM); in assay [2], not above 0.1 µg/mL; in assay [3], not above 0.1 µg/mL; in assay [4], 3.13 µg/mL (≈ 4.31 µM); in assay [5] it was 12.5 µg/mL (≈ 17.2 µM); in assay [6], 0.4 µg/mL (≈ 0.551 µM).
